Measured values taken from patent publication EP0149818A2, “1,4-Naphthoquinone derivatives, process for their preparation and their use as medicines” (Troponwerke GmbH & Co. KG, priority 1983, dated 1985).

Assays:
[1] = system: durch das chemotaktisch wirkende FMLP stimulierte Aggregation von PMN-Leukozyten; assay: Inhibition of FMLP-stimulated aggregation of PMN leukocytes (method of Cunningham et al.); type: cell-based; settings: Leukocyte
Excerpt: Darüber hinaus konnte für eine Reihe von Verbindungen der allgemeinen Formel I nachgewiesen werden, daß sie die durch das chemotaktisch wirkende FMLP stimulierte Aggregation von PMN-Leukozyten hemmen und dadurch Anteil an der entzündungshemmenden Wirkung haben (Methode von Cunningham et al., Agents & Actions 11, 583 (1981)). Für Verb. 1 ist die IC50 in diesem Test 3.7 x 10^-5 Mol/l.

[2] = system: durch Carrageenan ausgelöste ödem der Rattenpfote; assay: Carrageenan-induced rat paw oedema (method of Winter et al., modified: pure λ-carrageenan as 0,25 % suspension in saline); type: in vivo, Ratte; settings: po, p.o, λ-carrageenan 0,25 % suspension, read-out: DE50 (the source's name)
Experimental: Die Verbindungen der allgemeinen Formel I hemmen das durch Carrageenan ausgelöste ödem der Rattenpfote stark. Zum Nachweis diente die Methode von Winter et al., Proc. Soc. Exp. Bil. Med. 111, 544 (1962), mit der Abwandlung, daß zur ödemauslösung reines λ-carrageenan als 0,25 % Suspension in physiologischer Kochsalzlösung verwendet wurde. Beispielhaft wurde in diesem Testmodell für Verb. 1 die DE50 = 0,5 mg/kg p.o ermittelt.

[3] = system: Metabolisierung der Arachidonsäure über den Cyclooxygenaseweg; assay: Inhibition of arachidonic acid metabolism via the cyclooxygenase pathway (method of Brune et al.); type: cell-based
Excerpt: Wie die meisten NSAID (non steroidal antiinflammatory drugs) hemmen auch die meisten Verbindungen der allgemeinen Formel I die Metabolisierung der Arachidonsäure über den Cyclooxygenaseweg mehr oder weniger stark (Methode von Brune et al., Naunyn-Schmiedeberg's Arch. Pharmacol. 315, 269 (1981)). Die IC50 für Verb. 1 in diesem Test beträgt 2.6 x 10-^6 Mol/l.

IC50 [1]: 37 µM | IC50 [3]: 2.6 µM
Compound: O=C1C(O)=C(NCc2ccccc2)C(=O)c2ccccc21 [Verb. 1, 2-Benzylamino-3-hydroxy-naphthochinon-1,4]
ED50 [2]: 0.5 mg/kg
